Test results: patent publication US7985567B2, “Host cells and methods for producing 3-methyl-2-buten-1-ol, 3-methyl-3-buten-1-ol, and 3-methyl-butan-1-ol” (The Regents of the University of California, priority 2007, dated 2011)

Tested on: S. cerevisiae BY4741 cells
Experiment: In vivo reduction of 3-methyl-2-butenol or 3-methyl-3-butenol to 3-methyl-butanol by yeast
Type: cell-based, Saccharomyces cerevisiae
Conditions: 1 g/l substrate added after 48 hours, grown an additional 2 days; versus no substrate or 3-methyl-3-butenol; FIG. 3
Description: To test the capability of yeast to catalyze the conversion of 3-methyl-2-butenol to isopentanol, 5 ml. of YPD medium with 2% glycerol, in a 100 ml culture tube, was inoculated with an overnight culture of freshly plated S. cerevisiae BY4741 cells to achieve a final absorbance of 0.5 at 600 nm (A600). The cultures were grown at 30° C. at 200 r.p.m. After 48 hours, either 3-methyl-2-butenol or 3-methyl-3-butenol (1 g/l) was added to the culture.
Cultures were sampled after addition of 3-methyl-2-butenol or 3-methyl-3-butenol and grown for an additional 2 days. The samples were collected by pelleting 1 ml of culture, and adding 150 μl of the supernatant to 750 μl of the extraction solvent (80:20 chloroform:methanol spiked with 50 mg l^−1 of butanol internal standard). The samples were vortexed for 15 minutes and centrifuged for 2 minutes at 5000 r.c.f. 450 μl of the organic layer was removed from each sample and transferred to a clean GC vial for analysis. The GC-MS data were collected in full-scan mode (m/z 50-300) using a Tr-Wax column (0.25 mm×30 m, 0.25 μm film thickness; Thermo Electron) on a PolarisQ GC-MS with TriPlusautosampler (Thermo Electron). The carrier flow was 1.2 ml min^−1, and the inlet temperature was set to 200° C. The oven program was as follows: 40° C. […] Samples were normalized using the butanol internal standard and quantified using authentic standards.

## CC(C)=CCO [3-methyl-2-butenol, 3-methyl-2-buten-1-ol]
  isopentanol production by yeast grown in the presence of the alcohol substrate: significantly more isopentanol
